Here are results for seven molecules from ChEMBL document CHEMBL6114988, “Design, synthesis and biological evaluation of dual CDK9/PARP inhibitors for the treatment of cancer” (Eur J Med Chem, 2025).

For data set [1], the target named is Poly [ADP-ribose] polymerase 1 (Homo sapiens, UniProt P09874). Description: Inhibition of PARP1 (unknown origin) incubated for 1 hr by ELISA.
Data set [2] addresses Cyclin-dependent kinase 9 (Homo sapiens, UniProt P50750).
Description: Inhibition of CDK9 (unknown origin) using lipid substrate incubated for 40 mins in presence of ATP by kinase-Glo plus luminescence assay
The next data set concerns MOLM-13. Description: Antiproliferative activity against human MOLM-13 cells assessed as inhibition of cell proliferation incubated for 48 hrs by CCK-8 assay. The class given is functional, cell-based. The conditions noted are these: MOLM-13, 48 h.
Another data set relates to MV4-11. Description: Antiproliferative activity against human MV4-11 cells assessed as inhibition of cell proliferation incubated for 48 hrs by CCK-8 assay. The note with it: MV4-11, 48 h. The class given is functional, cell-based.
The test system of data set [3] is MDA-MB-231. Description: Induction of apoptosis in human MDA-MB-231 cells assessed as viable cell at 1 uM incubated for 24 hrs by Annexin V-FITC/PI staining based analysis (reference value: 96.3 %). It is filed as functional.
The subject of data set [4] is MDA-MB-231. Description: Induction of apoptosis in human MDA-MB-231 cells assessed as early apoptotic cell at 1 uM incubated for 24 hrs by Annexin V-FITC/PI staining based analysis (reference value: 0.96 %). It is filed as functional.
The test system of data set [5] is MDA-MB-231. Description: Induction of apoptosis in human MDA-MB-231 cells assessed as late apoptotic cell at 1 uM incubated for 24 hrs by Annexin V-FITC/PI staining based analysis (reference value: 2.61 %). It is filed as functional.
The subject of data set [6] is MDA-MB-231. Description: Induction of apoptosis in human MDA-MB-231 cells assessed as necrotic cell at 1 uM incubated for 24 hrs by Annexin V-FITC/PI staining based analysis (reference value: 0.10 %). The class given is functional.
For data set [7], the system named is MDA-MB-231. Description: Induction of cell cycle arrest in human MDA-MB-231 cells assessed as accumulation of cells at G1 phase at 1 uM incubated for 24 hrs by PI staining based flow cytometric analysis (reference value: 58.1%). The class given is functional.
The subject of data set [8] is MDA-MB-231. Description: Induction of cell cycle arrest in human MDA-MB-231 cells assessed as accumulation of cells at S phase at 1 uM incubated for 24 hrs by PI staining based flow cytometric analysis (reference value: 29.2%). It is filed as functional.
The test system of data set [9] is MDA-MB-231. Description: Induction of cell cycle arrest in human MDA-MB-231 cells assessed as accumulation of cells at G2/M phase at 1 uM incubated for 24 hrs by PI staining based flow cytometric analysis (reference value: 11.3%). It is filed as functional.
The nature of data set [10]: Metabolic stability in rat liver microsomes assessed as half life at 1 mg/ml incubated for 60 min in presence of NADPH by HPLC analysis. The class given is ADME, Microsome.
Data set [11] in a line: Metabolic stability in artificial gastric fluid assessed as parent compound remaining at 1 mg/ml incubated for 8 hrs by HPLC analysis. The class given is ADME. The conditions noted are these: read-out: Stability.
Data set [12] can be described thus: Metabolic stability in artificial intestinal fluid assessed as parent compound remaining at 1 mg/ml incubated for 8 hrs by HPLC analysis. It is filed as ADME. The note with it: read-out: Stability.
The nature of data set [13]: Metabolic stability in plasma assessed as parent compound remaining incubated for 3 hrs by HPLC analysis. It is filed as ADME, cell-free. The note with it: read-out: Stability.
The next data set concerns HeLa. Description: cells. The note with it: Homo sapiens, 48 h.
The next data set has as its system HCT-116. Description: cells. The note with it: Homo sapiens, HCT-116, 48 h.
A further data set has as its system MCF7. Description: cells. The conditions noted are these: Homo sapiens, MCF7, 48 h.
Data set [14] deals with MDA-MB-231. Description: cells. The conditions noted are these: Homo sapiens, MDA-MB-231, 48 h.
Description: Antiproliferative activity against human MDA-MB-231 cells assessed as inhibition of cell proliferation incubated for 48 hrs by CCK-8 assay
The test system of data set [15] is MDA-MB-231. Description: Induction of apoptosis in human MDA-MB-231 cells assessed as viable cell at 0.2 uM incubated for 24 hrs by Annexin V-FITC/PI staining based analysis (reference value: 96.3 %). It is filed as functional.
Data set [16] has as its system MDA-MB-231. Description: Induction of apoptosis in human MDA-MB-231 cells assessed as early apoptotic cell at 0.2 uM incubated for 24 hrs by Annexin V-FITC/PI staining based analysis (reference value: 0.96 %). The class given is functional.
In data set [17] the test system is MDA-MB-231. Description: Induction of apoptosis in human MDA-MB-231 cells assessed as late apoptotic cell at 0.2 uM incubated for 24 hrs by Annexin V-FITC/PI staining based analysis (reference value: 2.61 %). The class given is functional.
Data set [18] has as its system MDA-MB-231. Description: Induction of apoptosis in human MDA-MB-231 cells assessed as necrotic cell at 0.2 uM incubated for 24 hrs by Annexin V-FITC/PI staining based analysis (reference value: 0.10 %). It is filed as functional.
Data set [19] relates to MDA-MB-231. Description: Induction of apoptosis in human MDA-MB-231 cells assessed as viable cell at 10 uM incubated for 24 hrs by Annexin V-FITC/PI staining based analysis (reference value: 96.3 %). The class given is functional.
Data set [20] concerns MDA-MB-231. Description: Induction of apoptosis in human MDA-MB-231 cells assessed as early apoptotic cell at 10 uM incubated for 24 hrs by Annexin V-FITC/PI staining based analysis (reference value: 0.96 %). It is filed as functional.
Data set [21] deals with MDA-MB-231. Description: Induction of apoptosis in human MDA-MB-231 cells assessed as late apoptotic cell at 10 uM incubated for 24 hrs by Annexin V-FITC/PI staining based analysis (reference value: 2.61 %). The class given is functional.
Data set [22] has as its system MDA-MB-231. Description: Induction of apoptosis in human MDA-MB-231 cells assessed as necrotic cell at 10 uM incubated for 24 hrs by Annexin V-FITC/PI staining based analysis (reference value: 0.10 %). The class given is functional.
The test system of data set [23] is MDA-MB-231. Description: Induction of cell cycle arrest in human MDA-MB-231 cells assessed as accumulation of cells at G1 phase at 0.2 uM incubated for 24 hrs by PI staining based flow cytometric analysis (reference value: 58.1%). The class given is functional.
Data set [24] concerns MDA-MB-231. Description: Induction of cell cycle arrest in human MDA-MB-231 cells assessed as accumulation of cells at S phase at 0.2 uM incubated for 24 hrs by PI staining based flow cytometric analysis (reference value: 29.2%). It is filed as functional.
Data set [25] deals with MDA-MB-231. Description: Induction of cell cycle arrest in human MDA-MB-231 cells assessed as accumulation of cells at G2/M phase at 0.2 uM incubated for 24 hrs by PI staining based flow cytometric analysis (reference value: 11.3%). It is filed as functional.
The subject of data set [26] is MDA-MB-231. Description: Induction of cell cycle arrest in human MDA-MB-231 cells assessed as accumulation of cells at G1 phase at 10 uM incubated for 24 hrs by PI staining based flow cytometric analysis (reference value: 58.1%). The class given is functional.
Data set [27] relates to MDA-MB-231. Description: Induction of cell cycle arrest in human MDA-MB-231 cells assessed as accumulation of cells at S phase at 10 uM incubated for 24 hrs by PI staining based flow cytometric analysis (reference value: 29.2%). It is filed as functional.
Data set [28] concerns MDA-MB-231. Description: Induction of cell cycle arrest in human MDA-MB-231 cells assessed as accumulation of cells at G2/M phase at 10 uM incubated for 24 hrs by PI staining based flow cytometric analysis (reference value: 11.3%). The class given is functional.
Data set [29] deals with CDK9/cyclin T1 (Homo sapiens) (UniProt O60563+P50750). The conditions noted are these: dose 200.0 nM, time 70.0 min.

Sequence of Poly [ADP-ribose] polymerase 1 (P09874 whole entry): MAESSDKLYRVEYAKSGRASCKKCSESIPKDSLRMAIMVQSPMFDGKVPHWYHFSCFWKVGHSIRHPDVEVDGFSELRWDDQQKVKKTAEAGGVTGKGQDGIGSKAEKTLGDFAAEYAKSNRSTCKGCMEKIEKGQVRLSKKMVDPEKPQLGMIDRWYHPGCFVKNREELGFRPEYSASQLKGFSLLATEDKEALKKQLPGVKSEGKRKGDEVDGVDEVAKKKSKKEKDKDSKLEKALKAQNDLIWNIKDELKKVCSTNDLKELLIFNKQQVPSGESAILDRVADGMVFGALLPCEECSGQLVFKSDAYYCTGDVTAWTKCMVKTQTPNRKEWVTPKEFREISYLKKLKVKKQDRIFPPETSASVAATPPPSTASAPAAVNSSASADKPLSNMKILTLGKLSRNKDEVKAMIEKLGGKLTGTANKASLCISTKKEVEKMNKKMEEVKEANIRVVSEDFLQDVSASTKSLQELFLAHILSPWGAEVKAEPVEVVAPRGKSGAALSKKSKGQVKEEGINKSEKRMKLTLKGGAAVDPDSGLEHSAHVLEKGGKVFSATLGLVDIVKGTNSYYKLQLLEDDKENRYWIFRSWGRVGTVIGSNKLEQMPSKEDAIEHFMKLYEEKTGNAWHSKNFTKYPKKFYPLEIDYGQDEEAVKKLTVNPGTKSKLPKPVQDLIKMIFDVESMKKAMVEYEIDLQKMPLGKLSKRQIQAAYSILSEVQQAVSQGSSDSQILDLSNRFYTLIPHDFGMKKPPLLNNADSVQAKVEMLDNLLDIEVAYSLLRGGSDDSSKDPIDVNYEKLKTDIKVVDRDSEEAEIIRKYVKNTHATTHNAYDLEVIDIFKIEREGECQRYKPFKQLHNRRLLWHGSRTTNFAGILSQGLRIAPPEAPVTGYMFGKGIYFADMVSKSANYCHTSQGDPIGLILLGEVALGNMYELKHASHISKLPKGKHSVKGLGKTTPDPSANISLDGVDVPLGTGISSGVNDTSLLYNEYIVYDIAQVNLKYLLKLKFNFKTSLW
Sequence of Cyclin-dependent kinase 9 (P50750 whole entry): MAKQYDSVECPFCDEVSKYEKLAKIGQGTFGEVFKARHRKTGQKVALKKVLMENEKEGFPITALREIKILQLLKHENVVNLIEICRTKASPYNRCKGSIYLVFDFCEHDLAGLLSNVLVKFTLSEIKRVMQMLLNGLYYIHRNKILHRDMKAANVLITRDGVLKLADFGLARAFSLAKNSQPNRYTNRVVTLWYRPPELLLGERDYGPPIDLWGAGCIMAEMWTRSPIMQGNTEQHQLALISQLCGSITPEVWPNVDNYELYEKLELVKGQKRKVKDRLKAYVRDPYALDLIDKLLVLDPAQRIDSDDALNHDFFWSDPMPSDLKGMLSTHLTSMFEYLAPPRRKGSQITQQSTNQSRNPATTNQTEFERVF
Description for HCT-116: Antiproliferative activity against human HCT-116 cells assessed as inhibition of cell proliferation incubated for 48 hrs by CCK-8 assay
Description for HeLa: Antiproliferative activity against human HeLa cells assessed as inhibition of cell proliferation incubated for 48 hrs by CCK-8 assay
Description for MCF7: Antiproliferative activity against human MCF7 cells assessed as inhibition of cell proliferation incubated for 48 hrs by CCK-8 assay

Consider `COc1ccc(OC)c(-c2cc(Nc3cc(CN4CCN(C(=O)c5cc(Cc6n[nH]c(=O)c7ccccc67)ccc5F)CC4)ccn3)ncn2)c1`, for which the IC50 is 14 nM in data set [1] and 315 nM in data set [2].
Taken in the same sequence, the figures for `O=C(c1cc(Cc2n[nH]c(=O)c3ccccc23)ccc1F)N1CCN(Cc2ccnc(Nc3cc(-c4ccc(F)c5ccoc45)c(F)cn3)c2)CC1` were 118 nM and 54 nM.
For the molecule `COc1cc(F)ccc1-c1cc(Nc2cc(CS(C)(=N)=O)ccn2)ncc1F` (configuration not stated) [ENITOCICLIB], the IC50 came out at 80 nM in the data set on MOLM-13; 110 nM in the data set on MV4-11; 200 nM with HeLa; 180 nM in the data set on HCT-116; 50 nM in the data set with MCF7; 270 nM with MDA-MB-231 [14]. For the same molecule, the Activity stood at 82.1% with MDA-MB-231 [3]; 6.48% in the data set on MDA-MB-231 [4]; 7.66% in the data set with MDA-MB-231 [5]; 3.8% in the data set with MDA-MB-231 [6]; 54.9% in the data set with MDA-MB-231 [7]; 29.1% in the data set on MDA-MB-231 [8]. Further, the Activity in the data set on MDA-MB-231 [9] stood at 16.5%. Besides, the half-life at 1 mg/ml in data set [10] was 5.78 h. Further, the remaining at 8 h, 1 mg/ml in data set [11] is 101%; in data set [12] it was 97.4%. Further, the remaining at 3 h in data set [13] stood at 96%.
For `CCOc1cc(F)ccc1-c1cc(Nc2cc(CN3CCN(C(=O)c4cc(Cc5n[nH]c(=O)c6ccccc56)ccc4F)CC3)ccn2)ncn1`, the IC50 in [1] is 6 nM; with MOLM-13, 690 nM; in the data set with MV4-11, 3830 nM; in [2] it was 15 nM; with HeLa, 250 nM; in the data set on HCT-116, 130 nM. The IC50 turned out to be 670 nM with MCF7 and 440 nM with MDA-MB-231 [14]. Moreover, the Activity in the data set on MDA-MB-231 [3] is 82.8%; with MDA-MB-231 [4], 7.87%; with MDA-MB-231 [5], 7.54%; in the data set on MDA-MB-231 [6], 1.78%; with MDA-MB-231 [15], 94.9%; with MDA-MB-231 [16] it was 1.64%. Also, the Activity in the data set on MDA-MB-231 [17] stood at 2.67%; in the data set with MDA-MB-231 [18] it was 0.81%; with MDA-MB-231 [19], 76.1%; with MDA-MB-231 [20] it was 14.8%; with MDA-MB-231 [21], 8.01%; in the data set with MDA-MB-231 [22] it was 1.07%. The Activity in the data set with MDA-MB-231 [7] stood at 34.8%; in the data set with MDA-MB-231 [8], 31.1%; in the data set with MDA-MB-231 [9], 36.4%; with MDA-MB-231 [23], 33.1%; in the data set with MDA-MB-231 [24], 40%; in the data set on MDA-MB-231 [25] it was 27.9%. Besides, the Activity is 25.3% with MDA-MB-231 [26], 45.2% in the data set with MDA-MB-231 [27] and 29.1% with MDA-MB-231 [28]. The half-life at 1 mg/ml in data set [10] was 2.44 h. Further, the remaining at 8 h, 1 mg/ml in [11] worked out at 94.1%; in data set [12], 96.7%. Besides, the remaining at 3 h in [13] stood at 94.6%.
With `COc1ccc(-c2cc(Nc3cc(CN4CCN(C(=O)c5cc(Cc6n[nH]c(=O)c7ccccc67)ccc5F)CC4)ccn3)ncn2)c(OC)c1`, the IC50 in data set [1] came out at 10 nM; in the data set with MOLM-13, 4050 nM; in the data set with MV4-11, 1420 nM; in data set [2], 29 nM; in the data set on HeLa it was 1210 nM; in the data set with HCT-116, 2520 nM. In addition, the IC50 with MCF7 and with MDA-MB-231 [14] was above 50000 nM in each case. In data set [29], this molecule returned an inhibition of 73.9%.
For the molecule `COc1cc(F)ccc1-c1nc(Nc2cc(CN3CCN(C(=O)c4cc(Cc5n[nH]c(=O)c6ccccc56)ccc4F)CC3)ccn2)ncc1F`, the figures for the IC50 in data set [1] and in data set [2] were 91 nM and 2350 nM, respectively.
Consider `COc1cc(F)ccc1-c1cc(Nc2cc(CN3CCN(C(=O)c4cc(Cc5n[nH]c(=O)c6ccccc56)ccc4F)CC3)ccn2)ncc1F`, for which the IC50 in data set [1] was determined as 43 nM; in data set [2] it was 17 nM.
